Measurements: US20230137216A1, “Stabilization of Pharmaceutical Compositions Comprising Polysorbate” (LEK Pharmaceuticals d.d., priority 2020, published 2023)
Entries after “also recorded” stand apart in the source; their conditions may differ.

Assays:
[1] = Accelerated stability testing of PS80 (polysorbate content by mixed-mode chromatography with CAD)
Experimental: (§1) PS20 or PS80 obtained from different manufacturers (see Table 1) was dissolved in 20 mM aqueous buffer at pH 5.5 or 6.5 in a glass vial to a final concentration of 0.02% (w/v) polysorbate. The buffer salts used in the histidine buffers investigated were histidine chloride (HisCl) and various further histidine buffer salts (see below, all obtained from Sigma-Aldrich (now Merck KgaA)).
(§2) Degradation mechanisms of the polysorbates were explored using 20 mM imidazole chloride and 20 mM alanine chloride buffer salts. Also, HisCl buffer salt comprising solutions were prepared with the additional excipients of mannitol or trehalose (both Sigma-Aldrich) to determine the influence of sugars and their derivatives on polysorbate degradation. Finally, two different mAbs were used as the active agent that each contained 10 mg/mL mAb, 0.02% PS80 HX2 and 20 mM HisCl buffer salt at pH 6.5. The therapeutic protein solutions were provided by Lek d.d. (Mengeš, Slovenia). In all cases, the starting point samples were collected immediately and stored at −80° C. The vials were then placed into a 50° C. incubator for up to 2 months, with samples collected at 1 month and further samples in some cases at 2 months. All of these samples were stored at −80° C. for subsequent analysis.
(§3) The polysorbate contents were analysed and quantified using a method based on mixed-mode chromatography, as mixed anion exchange and reversed phase, combined with a charged aerosol detector (CAD). The external standard approach was used for quantification of the surfactants. Chromatographic analysis was carried out using the method of Hewitt et al. (Hewitt, D. et al. J. Chromatogr. A 1218, 2138-2145 (2011).
(§4) Analytes were separated using a Waters Oasis MAX column (30 μm particle size, 2.1 mm×20 mm), column temperature 30° C., flow rate 1 ml/min and a total run time of 10 min. The injection volume was 10 μL. Initial conditions were set at 90% solvent A (2% formic acid in purified water) and 10% solvent B (2% formic acid in isopropanol). Solvent B was increased to 20% in the first minute and held for 2.4 min. POE sorbitan esters were eluted using a step gradient of 20% to 100% B over 0.1 min, followed by an equilibration step of 10% B for 0.9 min.

[2] = Accelerated stability testing of PS20 (polysorbate content by mixed-mode chromatography with CAD)
Experimental: as §1, §2, §3, §4

[3] = as reported in prior work; cited from earlier work
[4] = Accelerated stability testing of PS80 HX2 (polysorbate content by mixed-mode chromatography with CAD); conditions: for degradation of PS80 HX2 in the presence of mAb1 / degradation of PS80 HX2 in the presence of mAb2: pH 6.5; for degradation of polysorbate 80 HX2: 0.02% w/v PS80 HX2, 20 mM histidine buffer salt, pH 6.5, 50° C.
Experimental: as §1, §2, §3, §4

[5] = 0.02% w/v PS80, 20 mM histidine chloride, pH 6.5, 50° C., 1 month
[6] = 0.02% w/v PS20, 20 mM histidine chloride, pH 6.5, 50° C., 1 month

## O=C(O)CN(CCN(CC(=O)O)CC(=O)O)CC(=O)O [EDTA]
[1]; [5]
  effect of added excipient on degradation of PS80: did not slow down the degradation
[2]; [6]
  effect of added excipient on degradation of PS20: did not slow down the degradation

## [Cl-].[Na+] [NaCl]
[1]; [5]
  effect of added excipient on degradation of PS80: did not slow down the degradation
[2]; [6]
  effect of added excipient on degradation of PS20: did not slow down the degradation

## CC(=O)O.N[C@@H](Cc1c[nH]cn1)C(=O)O [histidine acetate]
[3]
  oxidative degradation in buffer system of histidine and histidine acetate: promoted oxidative degradation

## N[C@@H](Cc1c[nH]cn1)C(=O)O.O=C(O)CC(O)C(=O)O [histidine malate]
[1]; pH 5.5
  degradation of PS80 (Merck): significantly less degradation
[4]
  degradation of PS80 HX2 in the presence of mAb1: no significant degradation
  degradation of PS80 HX2 in the presence of mAb2: no significant degradation
[2]; pH 5.5
  degradation of PS20 (Merck): significantly less degradation

## N[C@@H](Cc1cnc[nH]1)C(=O)O.O=C(O)CCC(=O)C(=O)O [histidine α-ketoglutarate]
[4]; 1 month
  degradation of polysorbate 80 HX2: major to almost complete degradation

## Cl.c1c[nH]cn1 [imidazole chloride]
[4]; 0.02% w/v PS80 HX2, 20 mM buffer salt, AlaCl pH 5.0 or 6.0, ImiCl pH 5.0, 6.5 or 7.0, 50° C., 1 month
  degradation of PS80 HX2: degraded almost entirely; also recorded: Polysorbate degradation was detected

## OC[C@@H](O)[C@@H](O)[C@H](O)[C@H](O)CO [mannitol]
[1]; pH 6.5
  effect of added excipient on degradation of PS80: did not slow down the degradation
[2]; pH 6.5
  effect of added excipient on degradation of PS20: did not slow down the degradation

## OC[C@H]1O[C@H](O[C@H]2O[C@H](CO)[C@@H](O)[C@H](O)[C@H]2O)[C@H](O)[C@@H](O)[C@@H]1O [trehalose]
[1]; pH 6.5
  effect of added excipient on degradation of PS80: did not slow down the degradation
[2]; pH 6.5
  effect of added excipient on degradation of PS20: did not slow down the degradation

## alanine chloride
[4]; pH 5
  degradation of PS80 HX2: no degradation

## histidine chloride [reference compound]
[1]; pH 5.5
  degradation of PS80: severe degradation
  degradation of PS80 (Merck): showed degradation
[4]
  degradation of PS80 HX2 in the presence of mAb1: significant degradation
  degradation of PS80 HX2 in the presence of mAb2: significant degradation
[2]; pH 5.5
  degradation of PS20: severe degradation
  degradation of PS20 (Merck): showed degradation

## histidine glutarate
[4]; 1 month
  degradation of polysorbate 80 HX2: major to almost complete degradation

## polyoxyethylene (20) sorbitan monooleate [PS80]
[1]; pH 5.5
  rate of degradation compared with PS20 samples from the same manufacturer: generally degrading faster
